Results on eleven compounds are retold here after patent US20110212467A1, “INHIBITORS OF dUTPase” (UNIVERSITY OF SOUTHERN CALIFORNIA, priority 2008, published 2011).

One data set addresses T1, dUTPase (Homo sapiens, UniProt P33316).
T1 sequence (P33316 94-252 limits assumed): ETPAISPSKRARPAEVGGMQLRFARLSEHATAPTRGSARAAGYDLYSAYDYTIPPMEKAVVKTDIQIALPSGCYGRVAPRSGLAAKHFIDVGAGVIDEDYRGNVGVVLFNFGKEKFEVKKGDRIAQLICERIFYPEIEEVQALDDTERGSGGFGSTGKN
Nature of the data set: dUTPase activity assay, % inhibition of dUTPase catalysis at 100 μM (Table 1). The following applies: fixed concentration of 100 μM. The class given is biochemical. Here is the method: dUTPase Activity Assay Cells were harvested and protein isolated and quantified as per Western blotting. Twenty-five μg of total protein was normalized to a 20 μl reaction volume with PBS/protease inhibitor. Relative dUTPase activity was determined as previously described (9) and is expressed as fold-change compared to an identical transfection in the presence of 0.5 μg/ml dox.
These molecules were tested in our dUTPase activity assay at an initial 100 μM in vitro to determine their percentage inhibition of dUTPase catalysis relative to un-inhibited control. Table 1 illustrates the docking fitness scores of the top four active compounds and their ability to inhibit dUTPase activity.

Data set [1] concerns MCF-7 human breast cancer cell line. Put plainly: Growth inhibition by MTS assay in MCF-7 cells, alone and combined with FUdR. It counts as cell-based. Conditions: MCF-7, MTS assay; for IC50: Homo sapiens, MCF7, read-out: concentration required to inhibit 50% cell growth; for combined drug effect with FUdR on growth inhibition: compound fixed at 62.5 μM with increasing concentrations of FUdR. On the procedure:
FIG. 9. Inhibitors of dUTPase induce growth arrest in the MCF-7 human breast cancer cell line. (A) MCF-7 cells were exposed to increasing concentrations of two novel dUTPase inhibitory lead compounds and growth inhibition was analyzed by MTS assay. […] (B) DU-203 at a fixed concentration of 62.5 μM was combined with increasing concentrations of FUdR and the combined drug effect analyzed by MTS assay and the degree of synergy determined using the methods of Chou and Talalay. […] BB-123 enhances the growth arrest of MCF-7 cells when combined with FUdR. (C) BB-123 at a fixed concentration of 62.5 μM was combined with increasing concentrations of FUdR and the combined drug effect analyzed as described previously.
Inhibitors of dUTPase induce growth arrest in the MCF-7 human breast cancer cell line. […] These growth inhibitory effects are consistent with the inhibition of dUTPase and the resultant accumulation of dUTP and uracil misincorporation during DNA replication. To test the specificity of these inhibitors, DU-203 and BB-123 were combined with the inhibitor of thymidylate synthase (TS), FUdR.

The target in a further data set is T2, DPD (Homo sapiens, UniProt Q12882).
T2 construct: host or cells: liver
T2 sequence (Q12882 4-1025): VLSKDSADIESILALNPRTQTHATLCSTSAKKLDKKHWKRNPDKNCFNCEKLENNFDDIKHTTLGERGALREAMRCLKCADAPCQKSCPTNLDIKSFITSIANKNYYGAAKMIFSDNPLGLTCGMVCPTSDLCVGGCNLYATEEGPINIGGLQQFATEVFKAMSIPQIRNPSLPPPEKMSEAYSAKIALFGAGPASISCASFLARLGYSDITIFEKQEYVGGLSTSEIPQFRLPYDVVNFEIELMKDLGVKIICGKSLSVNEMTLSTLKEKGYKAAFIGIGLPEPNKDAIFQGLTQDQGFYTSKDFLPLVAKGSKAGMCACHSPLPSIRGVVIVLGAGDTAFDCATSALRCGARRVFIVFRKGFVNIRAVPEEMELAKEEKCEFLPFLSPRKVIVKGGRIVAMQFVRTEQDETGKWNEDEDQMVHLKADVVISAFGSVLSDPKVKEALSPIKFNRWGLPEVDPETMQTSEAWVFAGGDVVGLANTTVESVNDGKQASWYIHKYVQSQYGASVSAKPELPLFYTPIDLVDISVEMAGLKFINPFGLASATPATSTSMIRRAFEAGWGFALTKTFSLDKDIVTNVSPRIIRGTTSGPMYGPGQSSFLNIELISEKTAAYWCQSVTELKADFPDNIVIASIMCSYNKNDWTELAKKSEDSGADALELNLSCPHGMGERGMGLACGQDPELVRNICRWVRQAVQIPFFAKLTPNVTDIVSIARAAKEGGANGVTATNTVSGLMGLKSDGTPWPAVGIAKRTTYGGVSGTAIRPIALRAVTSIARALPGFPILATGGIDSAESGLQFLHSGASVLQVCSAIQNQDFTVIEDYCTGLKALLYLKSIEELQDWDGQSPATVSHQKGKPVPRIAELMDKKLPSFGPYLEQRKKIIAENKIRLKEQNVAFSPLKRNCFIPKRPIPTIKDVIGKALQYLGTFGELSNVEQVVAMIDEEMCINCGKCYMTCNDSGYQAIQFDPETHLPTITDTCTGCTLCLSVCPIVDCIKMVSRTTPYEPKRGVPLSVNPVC
Conditions: cited from earlier work.

For data set [2], the system named is MCF-7 pTet-off cells. Nature of the data set: dUTP accumulation assay. It counts as cell-based, human. The following applies: 24 h; for reduction in dUTP pool expansion with dUTPase overexpression versus basal dUTPase: 10 μM 5-FU or 1 μM FUdR. On the procedure: FIG. 5. Elevated dUTPase Protects Breast Cancer Cells from 5-FU. (A) Western blot and analysis of dUTPase expression and corresponding dUTPase enzyme activity assay following 72 h transfection with pTre-Tight:DUT-N in the presence and absence of 0.5 μg/m1 dox, Histogram bars represent the mean ±SEM of corresponding Western lysates analyzed in duplicate. (B) Analysis of dUTP accumulation in pTre-Tight:DUT-N-transfected MCF-7 psTet-off cells with basal (+dox) and induced (−dox) dUTPase expression and treated with 10 μM 5-FU, 1 μM FUdR and taxol (paclitaxel) 5 nM for 24 h, % dUTP was calculated as described in ‘Materials and Methods’, Histogram bars represent the mean ±SEM of two independent treatments, †=dUTP not detected. (C) Growth inhibition measured by MTS assay in pTre-Tight:DUT-N-transfected MCF-7 pTet-off cells following treatment with increasing concentrations (in μM) of 5-FU for 72 h. Histogram bars represent the mean ±SEM of three independent treatments, *=p<0.05, **=p<0.01.
dUTP Accumulation Assay MCF-7 pTet-off cells were treated with specified concentrations of 5-FU, FUdR and taxol for indicated times, harvested, and 3×10^6 cells were analyzed for nucleotide pool content using the assay developed by Sherman and Fyfe (10) modified to detect levels of TTP and dUTP by pre-incubating extracts with recombinant dUTPase (9, 11). Radioactive incorporation, measured in the presence of dUTPase represented the TTP pool, while untreated extracts represented both the dUTP and TTP pools. dUTP accumulation was determined by subtracting the results of extracts treated with dUTPase from untreated extracts and presented as % accumulation in histogram format. Statistical significance was determined using a two-tailed unpaired Student's t-test (Graphpad, San Diego, Calif.).
Elevated dUTPase Protects Breast Cancer Cells from 5-FU. […] A tetracycline-repressible dUTPase expression construct and overexpressed dUTPase with an approximate 4-fold increase in expression and enzymatic activity in transfected tet-inducible MCF-7 pTet-off cells (FIG. 5A) was utilized. […]

Data set [3] deals with MCF-7 pTet-off cells. Put plainly: Growth inhibition assay in MCF-7 pTet-off cells. It counts as cell-based. The following applies: Homo sapiens, MCF7; MCF-7 cells, 72 h. On the procedure: Growth Inhibition Assay MCF-7 pTet-off cells were transfected in the presence or absence of 0.5 μg/ml of dox and growth inhibition was measured as previously (9) using CellTiter 96® AQueous One Solution (Promega, Madison, Wis.). Cells were exposed to increasing concentrations of 5-FU for 72 h. Absorbance was measured using a SpectraMax 190 microplate reader (Molecular Devices, Sunnyvale, Calif.) at 490 nm, with drug treated cells compared to untreated controls set at 100%. Statistical significance was determined using a two-tailed unpaired Student's t-test (Graphpad, San Diego, Calif.).
We subsequently investigated the effects of dUTPase overexpression on growth inhibition following exposure of MCF-7 pTet-off cells to increasing concentrations of 5-FU.

A further data set has as its system advanced breast cancer. Conditions: cited from earlier work; for time to progression: capecitabine alone, or lapatinib combined with capecitabine.

Consider `CC(=O)CSc1nc2c(c(=O)[nH]c(=O)n2C)n1CC(O)COc1ccccc1C` (centres unmarked) [BB37], for which the inhibition at 100 µM at dUTPase is 34%.
As to `CCc1ccc(N2CN(c3ccc(CC)cc3)CN(c3ccc(CC)cc3)C2)cc1` [BB123], in data set [1], the IC50 is 73.8 µM and the “combined drug effect with FUdR on growth inhibition” value was “enhanced growth inhibition at all concentrations tested”. Also, the “combined drug effect with FUdR on growth inhibition” value in data set [1] (listed as BB-123) was “enhanced growth inhibition is observed at all concentrations tested”.
Take `O=c1[nH]cc(F)c(=O)[nH]1` [Compound 5-FU, 5-fluorouracil]: at DPD, the “5-FU degraded by DPD in the liver” value is on record as > 80%. In addition, in the data set with MCF-7 pTet-off cells [2], the “reduction in dUTP pool expansion with dUTPase overexpression versus basal dUTPase” value amounted to 37%. In the data set on MCF-7 pTet-off cells [3], the IC50 was > 10 µM.
For the compound `CCCc1ccc(OCC(=O)Nc2ccc(S(=O)(=O)Nc3onc(C)c3C)cc2)cc1` [Du 7], testing at 100 µM at dUTPase gave an inhibition of 55.7%.
As for `Cc1cc(C)c(NC(=O)CSc2nc3ccc(NC(=O)CSc4nnc(COc5ccccc5)n4-c4ccccc4)cc3s2)c(C)c1` [Du 44], the inhibition at 100 µM against dUTPase was 28.5%.
Regarding `N#Cc1c(N)nc(SCC(=O)c2ccc(F)cc2)c(C#N)c1-c1ccc(OCc2ccccc2)cc1` [Du 202], the “% dUTPase Inhibition” value at dUTPase is reported as “Inactive”.
`COc1cc(/C=N/NC(=O)C(Cc2c[nH]c3ccccc23)NC(=O)OCc2ccccc2)cc([N+](=O)[O-])c1O` (centres unmarked) [Du 203]: in data set [1], the IC50 was found to be 65.1 µM and the “combined drug effect with FUdR on growth inhibition” value was “enhanced growth inhibition is observed at all concentrations tested”.
In the case of `O=c1[nH]c(=O)n([C@H]2C[C@H](O)[C@@H](CO)O2)cc1F` [FUdR, fluorodeoxyuridine], in the data set with MCF-7 pTet-off cells [2], the “reduction in dUTP pool expansion with dUTPase overexpression versus basal dUTPase” value is 38%.
As for `CCCCCOC(=O)Nc1nc(=O)n([C@@H]2O[C@H](C)[C@@H](O)[C@H]2O)cc1F` [capecitabine], the time to progression with advanced breast cancer is reported as 19.7 weeks.
`CS(=O)(=O)CCNCc1ccc(-c2ccc3ncnc(Nc4ccc(OCc5cccc(F)c5)c(Cl)c4)c3c2)o1` [lapatinib]: in the data set with advanced breast cancer, the time to progression is recorded as 36.9 weeks. For the same compound, the “improved response rate compared to capecitabine alone” value with advanced breast cancer (combined with capecitabine, ErbB2 positive advanced breast cancer, previously failed multiple lines of therapy) is given as 12.2%.
Regarding `CC(=O)O[C@H]1C(=O)[C@@]2(C)[C@H]([C@H](OC(=O)c3ccccc3)[C@]3(O)C[C@H](OC(=O)[C@H](O)[C@@H](NC(=O)c4ccccc4)c4ccccc4)C(C)=C1C3(C)C)[C@]1(OC(C)=O)CO[C@@H]1C[C@@H]2O` [paclitaxel], the dUTP detection result in the data set with MCF-7 pTet-off cells [2] (taxol 5 nM, basal or induced dUTPase expression) is “no detection of dUTP”.
